Calls of active or inactive are those of the source. The rule behind the calls is not given here.
How the values were obtained:
[1] = Inhibition of mitochondrial pyruvate carrier in C57BL/6J mouse cardiac mitochondria assessed as inhibition of pyruvate/malate-induced mitochondrial respiration by steady-state ADP coupled assay; set-up: species or system Heart
[2] = Kinetic solubility of the compound in PBS at pH 7.4 measured after 24 hrs by LC-MS/MS analysis; format: physicochemical; details: for Kinetic_solubility: buffer, pH 7.4, 24 h; for solubility kinetic at 24 h: PBS, pH 7.4, read-out: Kinetic_solubility
[3] = Half life in human liver microsomes at 1 uM in presence of NADPH by LC-MS/MS analysis; format: ADME, Microsome
[4] = Intrinsic clearance in human liver microsomes at 1 uM in presence of NADPH by LC-MS/MS analysis; format: ADME, Microsome
[5] = tested on: LX-2; test: Inhibition of hepatic stellate cell activation in human LX-2 cells assessed as inhibition of TGF-beta-stimulated ACTA2 gene expression at 10 uM quantitative real-time PCR analysis; format: functional, cell-based
[6] = molecular target: T1, Peroxisome proliferator-activated receptor gamma (Homo sapiens, UniProt P37231); test: Agonist activity at Gal4-fused PPAR-gamma (unknown origin) transfected in mouse C2C12 cells assessed as decrease in luciferase activity at 0.2 to 20 uM measured after 24 hrs by Dual-Glo Luciferase assay; format: toxicity, cell-based; details: c2c12, 24 h, dose 0.2-20 µM
T1 sequence (P37231 whole entry): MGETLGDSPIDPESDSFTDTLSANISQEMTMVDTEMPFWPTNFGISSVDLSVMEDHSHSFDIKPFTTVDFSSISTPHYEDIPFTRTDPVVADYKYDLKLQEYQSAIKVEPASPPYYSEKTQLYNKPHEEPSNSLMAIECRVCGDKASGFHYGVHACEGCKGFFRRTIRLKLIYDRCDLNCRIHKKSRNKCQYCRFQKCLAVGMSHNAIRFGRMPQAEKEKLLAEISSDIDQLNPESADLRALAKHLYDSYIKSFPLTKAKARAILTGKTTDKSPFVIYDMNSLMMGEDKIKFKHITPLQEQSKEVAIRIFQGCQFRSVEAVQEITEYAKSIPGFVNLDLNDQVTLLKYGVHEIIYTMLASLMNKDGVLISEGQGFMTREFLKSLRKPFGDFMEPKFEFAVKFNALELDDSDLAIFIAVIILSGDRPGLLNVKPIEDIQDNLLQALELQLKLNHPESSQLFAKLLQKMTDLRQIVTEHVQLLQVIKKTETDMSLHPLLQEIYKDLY

[7] = molecular target: T1, Peroxisome proliferator-activated receptor gamma; test: Agonist activity at Gal4-fused PPAR-gamma (unknown origin) transfected in mouse C2C12 cells assessed as decrease in luciferase activity at 10 uM measured after 24 hrs by Dual-Glo Luciferase assay; format: toxicity, cell-based; details: c2c12, 24 h
[8] = tested on: LX-2; test: Inhibition of hepatic stellate cell activation in human LX-2 cells assessed as inhibition of TGF-beta-stimulated FN1 gene expression at 10 uM quantitative real-time PCR analysis; format: functional, cell-based
[9] = tested on: LX-2; test: Inhibition of hepatic stellate cell activation in human LX-2 cells assessed as inhibition of TGF-beta-stimulated […] gene expression at 10 uM quantitative real-time PCR analysis; format: functional, cell-based

Compound | EC50 [1] [nM] | also measured
N#C/C(=C\c1c[nH]nc1-c1cccc(Br)c1)C(=O)O | 444 | Kinetic_solubility [2]: 0.2 µM; t1/2 [3]: > 2 h; Intrinsic clearance [4]: 3 µL/min/mg
COc1cccc(-c2n[nH]cc2/C=C(\C#N)C(=O)O)c1 | 927 | –
N#C/C(=C\c1c[nH]nc1-c1ccccc1C(F)(F)F)C(=O)O | 258 | –
N#C/C(=C\c1c[nH]nc1-c1ccc(F)c([N+](=O)[O-])c1)C(=O)O | 810 | –
N#C/C(=C\c1c[nH]nc1-c1cccs1)C(=O)O | 374 | –
COc1ccc(-c2n[nH]cc2/C=C(\C#N)C(=O)O)cc1 | 795 | –
N#C/C(=C\c1cn(-c2ccccc2)c2ccccc12)C(=O)O | 241 | –
N#C/C(=C\c1c[nH]nc1-c1cccc2ccccc12)C(=O)O | 273 | –
N#C/C(=C\c1c[nH]nc1-c1ccc2c(c1)OCO2)C(=O)O | 435 | –
N#C/C(=C\c1c[nH]nc1-c1ccc(C(F)(F)F)cc1)C(=O)O | 543 | –
N#C/C(=C\c1cn(Cc2ccccc2)nc1-c1ccc2ccccc2c1)C(=O)O | 1290 | –
N#C/C(=C\c1c[nH]nc1-c1ccccc1F)C(=O)O | 791 | –
N#C/C(=C\c1c[nH]nc1-c1cccc(Cl)c1)C(=O)O | 650 | –
N#C/C(=C\c1c[nH]nc1-c1ccc([N+](=O)[O-])cc1)C(=O)O | 4120 | –
CCOC(=O)/C(C#N)=C/c1c[nH]nc1-c1ccc(Cl)c(Cl)c1 | 3890 | Kinetic_solubility [2]: 4.8 µM; t1/2 [3]: 0.03 h; Intrinsic clearance [4]: 377 µL/min/mg
N#C/C(=C\c1cn(-c2ccccc2)nc1-c1cccc2ccccc12)C(=O)O | 707 | –
CC(C)(C)c1ccc(-c2n[nH]cc2/C=C(\C#N)C(=O)O)cc1 | 447 | –
N#C/C(=C\c1cn(-c2ccccc2)nc1-c1ccc(Cl)c(Cl)c1)C(=O)O | 369 | –
CC(C)(C)OC(=O)/C(C#N)=C/c1c[nH]nc1-c1ccc(Cl)c(Cl)c1 | 8710 | –
COc1ccccc1-c1n[nH]cc1/C=C(\C#N)C(=O)O | 568 | –
N#C/C(=C\c1c[nH]nc1-c1ccccc1Cl)C(=O)O | 516 | –
N#C/C(=C\c1c[nH]nc1-c1ccc(Br)cc1)C(=O)O | 344 | –
N#C/C(=C\c1c[nH]nc1-c1cc(Br)cc(Br)c1)C(=O)O | 70 | inhibition [5]: Active; Activity [6]: Not_active; Kinetic_solubility [2]: 22 µM; t1/2 [3]: 0.257 h; Intrinsic clearance [4]: 45 µL/min/mg
N#C/C(=C\c1c[nH]nc1-c1ccc(F)cc1)C(=O)O | 651 | –

Compound | EC50 [1] [nM] | also measured
CCn1cc(/C=C(\C#N)C(=O)O)c(-c2ccc(Cl)c(Cl)c2)n1 | 390 | –
N#C/C(=C\c1c[nH]nc1-c1cc(C(F)(F)F)cc(C(F)(F)F)c1)C(=O)O | 165 | –
N#C/C(=C\c1c[nH]nc1-c1cc(Cl)ccc1Cl)C(=O)O | 504 | –
N#C/C(=C\c1c[nH]nc1-c1cc2ccccc2s1)C(=O)O | 552 | –
N#C/C(=C\c1cn(Cc2ccccc2)nc1-c1ccc(Cl)c(Cl)c1)C(=O)O | 722 | –
N#C/C(=C\c1c[nH]nc1-c1ccccc1)C(=O)O | 796 | –
N#C/C(=C\c1c[nH]nc1-c1ccc(Cl)cc1Cl)C(=O)O | 1080 | –
N#C/C(=C\c1c[nH]nc1-c1ccc(-c2ccccc2)cc1)C(=O)O | 919 | –
COc1ccc(-c2n[nH]cc2/C=C(\C#N)C(=O)O)cc1OC | 808 | –
CN(CCOc1ccc(CC2SC(=O)NC2=O)cc1)c1ccccn1 (stereo not given) [ROSIGLITAZONE] | – | Activity [7]: Active
N#C/C(=C\c1c[nH]nc1-c1ccc(Cl)cc1)C(=O)O | 796 | –
N#C/C(=C\c1c[nH]nc1-c1cccc(F)c1)C(=O)O | 785 | –
N#C/C(=C\c1c[nH]nc1-c1cccc(C(F)(F)F)c1)C(=O)O | 108 | Activity [6]: Not_active; solubility kinetic at 24 h [2]: ≥ 100 µM; t1/2 [3]: > 2 h; Intrinsic clearance [4]: 3 µL/min/mg
N#C/C(=C\c1c[nH]nc1-c1ccc2ccccc2c1)C(=O)O | 212 | inhibition [5]: Active; inhibition [8]: Active; inhibition [9]: Active; Activity [6]: Not_active; solubility kinetic at 24 h [2]: ≥ 100 µM; t1/2 [3]: 1.15 h; Intrinsic clearance [4]: 10 µL/min/mg
CC(C)(C)OC(=O)/C(C#N)=C/c1c[nH]nc1-c1cccc(C(F)(F)F)c1 | 12000 | Kinetic_solubility [2]: 24.4 µM; t1/2 [3]: > 2 h; Intrinsic clearance [4]: 2 µL/min/mg
N#C/C(=C\c1cn(-c2ccccc2)nc1-c1ccc2ccccc2c1)C(=O)O | 789 | –
CS(=O)(=O)c1ccc(-c2n[nH]cc2/C=C(\C#N)C(=O)O)cc1 | 18300 | –
COc1ccc(-c2n[nH]cc2/C=C(\C#N)C(=O)O)cc1F | 568 | –
N#C/C(=C\c1c[nH]nc1-c1ccc(Cl)c(Cl)c1)C(=O)O | 107 | inhibition [5]: Active; inhibition [8]: Active; inhibition [9]: Active; Activity [6]: Not_active; solubility kinetic at 24 h [2]: ≥ 100 µM; t1/2 [3]: > 2 h; Intrinsic clearance [4]: 3 µL/min/mg
N#C/C(=C\c1c[nH]nc1-c1cccnc1)C(=O)O | 7770 | –
Cc1ccccc1-c1n[nH]cc1/C=C(\C#N)C(=O)O | 659 | –
CCc1ccc(-c2n[nH]cc2/C=C(\C#N)C(=O)O)cc1 | 614 | –
Cc1cccc(-c2n[nH]cc2/C=C(\C#N)C(=O)O)c1 | 550 | –
COc1ccc(-c2n[nH]cc2/C=C(\C#N)C(=O)O)c(F)c1 | 659 | –

— ChEMBL document CHEMBL6074717, “Advancing mitochondrial therapeutics: Synthesis and pharmacological evaluation of pyrazole-based inhibitors targeting the mitochondrial pyruvate carrier” (Eur J Med Chem, 2025)
